Key:
[1] = system: breast and ovarian cancer cell lines (DNA barcoded human cancer cell lines); assay: PRISM screen, 5-day cell growth assay of pooled DNA barcoded cancer cell lines; type: cell-based; conditions: TP53 MUT cell lines, 5 days
Method: FIG. 1 is a series of scatter plots of pooled barcoded cancer cell lines treated in a 5-day cell growth assay with DMSO or KIF18Ai C9 (8-point concentration range), relative abundance of unique cell line barcodes was measured to estimate cell viability. KIF18Ai C9 AUC values versus CIN features (whole genome doubling (WGD), ploidy, aneuploidy score (AS)) plus TP53 status in breast and ovarian cancer cell lines (n=58). Scatter plots show KIF18Ai C9 AUC versus CIN features plus TP53 status with mean AUC indicated for each group. Colored cell lines overlap with KIF18Ai C9 sensitivity in nonbarcoded screens. Dotted line indicates AUC value of 0.65. ** p=0.0037, *** p=0.0004 by unpaired t-test.
To investigate the anti-proliferative effects of KIF18A inhibitors, a PRISM (profiling relative inhibition simultaneously in mixtures) screen was conducted on a panel of DNA barcoded human cancer cell lines. Pooled cancer cell lines were treated with DMSO or increasing concentrations of KIF18A inhibitor, Compound C9, for 5 days, and then cell viability was determined by measuring the abundance for each unique DNA barcode. We divided the cell lines by CIN features (WGD, ploidy, aneuploidy score) and further subdivided them based on TP53 status. In the TP53^MUT cancer cell lines, we observed a significant enrichment for KIF18A inhibitor sensitivity in cell lines that were WGD+ with >2.1 ploidy (55%, 12 of 22 sensitive) relative to WGD− with ≤2.1 ploidy (21%, 4 of 19 sensitive) (p=0.0004).

[2] = system: HCC1806 cells; assay: mitotic duration and fate (slippage) by live-cell timelapse imaging of cells arrested with DMN; type: cell-based
Method: To define the capacity of KIF18Ai-resistant HCC1806 clonal lines to maintain the mitotic state, we arrested cells indefinitely in mitosis with the Eg5 inhibitor dimethylenastron (DMN) which causes spindle collapse and chronic SAC activation^28,29. We then monitored mitotic slippage by live-cell timelapse imaging.
Fluorescent cell lines were seeded into either 4-chamber, 35-mm glass-bottom culture dishes (Greiner), 4-well chamber slides (Ibidi), or 8-well chamber slides (Ibidi). The day of the experiment, cells were transferred to CO2-independent base medium (ThermoFischer) with the appropriate additives for each cell line and maintained at 37° C. in an environmental control station. Long-term time-lapse imaging was performed using a Deltavision Elite system (GE Healthcare) controlling a Scientific CMOS camera (pco.edge 5.5.). Images were acquired with an Olympus 40×1.4 NA oil objective. For general mitotic phenotypes, cells were treated as indicated, then images were captured every 5 min in 9×3 μm z-sections in respective fluorescent channels and by differential inference contrast. For CyclinB1-EYFP experiments, cells were treated as indicated, then images were captured every 2.5 min in 9×3 μm z-sections in respective fluorescent channels and by differential inference contrast. Phenotypic evaluation and intensity measurements were taken from maximum intensity projected 2D time-lapse images. Mitotic duration was calculated as the time taken from nuclear envelope breakdown to the onset of anaphase. Metaphase to anaphase duration was calculated as the time from the appearance of the last, uninterrupted metaphase plate to the onset of anaphase. Analysis of Cyclin B1-EYFP mitotic intensity was measured from NEBD through 30 min past anaphase using FIJI. Intensity traces were manually aligned to the metaphase to anaphase inflection point, then normalized in R. If traces never inflected, they were aligned to 30 min past NEBD.

[3] = system: HCC1806 cells; assay: 5-day MTT endpoint viability assay, HCC1806
Method: The following day, drugs were added as indicated and cells were cultured for 5 days. […] 100 μL 10% SDS, 0.01M HCl solution was then added to each well to dissolve the formazan crystals. Absorbance was measured with a spectrophotometer at 570 nm. % Viability=(Signal[sample]−Signal[DMN])/(Signal [DMSO]−Signal [DMN])×100 unless specifically noted. % Toxicity=100%−Viability. % Viability rescue=(Signal [sample, KIF18Ai]−Signal[WT, KIF18Ai])/(Signal[WT, DMSO]−Signal [WT, KIF18Ai])×100. Drug titration curves were derived using the equation for “[Inhibitor] vs. response−Variable slope (four-parameter)” in GraphPad Prism 7 for Mac OS X (GraphPad Software, La Jolla, USA).

[4] = system: panel of sensitive and insensitive cell lines (RPE1, MCF10A, HCT116, DLD1, MCF7, MDA-MB-157, HCC1806, HeLa, OVCAR-3, OVCAR-8); assay: 5-day MTT endpoint viability assay, cell line panel; type: cell-based; conditions: sensitive cell lines co-treated with KIF18Ai and low doses of Reversine (30 nM, FIG. 9E)
From the text: To investigate the determinants of KIF18A dependency in cancer, we used AM-1882, a highly specific small molecule KIF18A inhibitor (KIF18Ai) developed by Amgen Inc^21,23. Treatment with KIF18Ai causes stable binding of the KIF18A motor domain to microtubules^23, leading to the relocation of KIF18A in mitosis from kinetochores to spindle poles in all the cell lines tested (FIG. 8a and FIG. 15a). This mis-localization phenocopies the effect of KIF18A loss^21, likely by blocking KIF18A-induced stabilization of microtubule plus ends^16. We examined the effect of KIF18Ai on cell viability using a 5-day endpoint assay performed with non-transformed cells (RPE1 and MCF10A) and a panel of colon (HCT116, DLD1), breast (MCF7, MDA-MB-157, HCC1806), and ovarian (HeLa, OVCAR-3, OVCAR-8) cancer cell lines (FIG. 8b,c and FIG. 15b).

## CC(C)(C)NS(=O)(=O)c1cccc(NC(=O)c2ccc(S(=O)(=O)NC(C)(C)C)cc2N2CCC3(CC2)CC3)c1 [Compound C9, 4-(N-(tert-butyl)sulfamoyl)-N-(3-(N-(tert-butyl)sulfamoyl)phenyl)-2-(6-azaspiro[2.5]octan-6-yl)benzamide]
[1]; WGD+ with >2.1 ploidy (12 of 22 sensitive)
  cell lines sensitive to KIF18A inhibitor: 55%
[1]; WGD− with ≤2.1 ploidy (4 of 19 sensitive)
  cell lines sensitive to KIF18A inhibitor: 21%
[1]; aneuploidy score >8 (16 of 34 sensitive)
  cell lines sensitive to KIF18A inhibitor: 47%
[1]; aneuploidy score ≤8 (0 of 7 sensitive)
  cell lines sensitive to KIF18A inhibitor: 0%

## CC1(C)CC(=O)C2=C(C1)NC(=S)NC2c1cccc(O)c1 (stereo not drawn) [DMN, dimethylenastron]
[2]; Cyclin B1 knockout HCC1806
  slippage rate: 93%
  time spent in mitosis: 11 h
[2]; HSET knockout HCC1806
  rate of mitotic slippage: 27%
  time in mitosis: 19 h
[2]; WT HCC1806
  cell death: 75%
  mitotic slippage: 25%
  time in mitosis (average): 25 h
[2]; hypomorphic MAD1 HCC1806
  rate of mitotic slippage: 95%
  time in mitosis: 23 h

## O=C1NC(=NCc2cccs2)S/C1=C\c1ccc2ncccc2c1 [RO-3306]
[3]; sub-saturating concentrations of RO-3306
  rescue of viability in KIF18Ai-treated cells: robust rescue of viability

## c1nc2nc(Nc3ccc(N4CCOCC4)cc3)nc(NC3CCCCC3)c2[nH]1 [Reversine]
[4]
  rescue of KIF18Ai toxicity: rescued KIF18Ai toxicity
[2]; SAC function abolished with Reversine, compared with DMN arrest
  time to exit mitosis (all cells): less than an hour
[3]; higher concentrations of Reversine
  effect on cells: toxic to cells
[3]; low doses of Reversine, WT and UBE2S overexpressing HCC1806 treated with KIF18Ai
  rescue of KIF18Ai toxicity: potent rescue of KIF18Ai toxicity
